System: NanoLuc-PEST expressing L. mexicana axenic amastigotes
Assay: microbe, parasite or virus in culture
Format: cell-based
Settings: 72 hours, relative to DMSO only control, n = 4; for viability at 2 µM / viability at 10 µM: Leishmania mexicana, read-out: Relative Bioluminescence (%)

SMILES | Relative Bioluminescence (%) (2 µM compound) | Relative Bioluminescence (%) (10 µM compound) | viability at 2 µM (2 µM compound) | viability at 10 µM (10 µM compound)
CC(=O)Nc1ccc(NC(=O)c2cc(-c3cc(Cl)ccc3O)n[nH]2)cc1 [MMV676380] | 84.54% | 97.79% | – | –
COc1ccc(N(CCc2cccc(C)n2)C(C)=O)cc1 [MMV675995] | 51.88% | 31.11% | – | –
COc1cccc(OCC(=O)c2ccc(Br)cc2)c1 [MMV676379] | 81.42% | 79.42% | – | –
COc1ccc(S(=O)(=O)Nc2ccc(CN3CCN(C(=O)c4cccc(C#N)c4)CC3)cc2)cc1 [MMV689029] | 67.41% | 57.59% | – | –
O=C(Nc1nc(-c2ccccn2)cs1)c1cncn1-c1ccccc1 [MMV676512] | 15.66% | -0.58% | – | –
CCOc1ccc(OCC(=O)Nc2cc(C)cc(C)c2)cc1 [MMV676470] | 87.35% | 79.72% | – | –
CC(=O)Nc1ccc(-c2noc(CC3CCCN(Cc4cccc(F)c4C)C3)n2)cc1 (stereo not drawn) [MMV689061] | 77.60% | 95.91% | – | –
Cc1cc(Cl)c(S(=O)(=O)N2CCCC2)cc1OCC(=O)NC1CCCCC1 [MMV006833] | 98.68% | 81.43% | – | –
COC(=O)c1c(NC(=O)c2cc3ccccc3oc2=O)sc2c1CCN(Cc1ccccc1)C2 [MMV676480] | 96.73% | 61.83% | – | –
Cc1cc(Nc2ccc(C(F)(F)F)cc2)n2ccnc2n1 [MMV011229] | 102.18% | 84.66% | – | –
CCCCS(=O)(=O)Nc1ccc2cnn(C)c2c1 [MMV687145] | 132.61% | 130.77% | – | –
CC(C)(C)c1ccc(N[C@@H]2CCCC[C@H]2NC(=O)c2ccco2)cc1 [MMV675969] | 104.76% | 77.56% | – | –
CCC(Sc1nc2ccccc2o1)C(=O)Nc1nnc(C)s1 (stereo not drawn) [MMV611037] | 55.30% | 44.60% | – | –
CC1CCCN(C(=O)C(C)Nc2cc(Cl)ccc2N2CCOCC2)C1 (stereo not drawn) [MMV020388] | 121.02% | 143.84% | – | –
CCCCc1ccc(NC(=O)Nc2ccc(O[C@H]3CCCC[C@@H]3N(C)c3ccccc3)c(F)c2)cc1 [MMV676063] | 99.42% | 66.65% | – | –
COc1ccc(C2=NCCN2)cc1-c1cn(-c2cccc(C3=NCCN3)c2)nn1 [MMV688547] | 85.85% | 128.07% | – | –
Cc1[nH]c2cc(F)cc(F)c2c(=O)c1-c1ccc(Oc2ccc(OC(F)(F)F)cc2)cc1 [MMV671636] | 40.19% | 3.97% | – | –
CCc1nn(C)c(C(=O)NCc2ccc(Oc3ccc(C)cc3)cc2)c1Cl [MMV688934, Tolfenpyrad] | – | – | 68.5% | 68.1%
CC1CCCCN1C(=O)NCCc1coc(-c2ccc(F)cc2)n1 (stereo not drawn) [MMV688797] | 76.99% | 71.92% | – | –
CC(Oc1ccccc1)C(=O)Nc1nc(-c2ccccn2)cs1 (stereo not drawn) [MMV676411] | 48.75% | -0.81% | – | –
O=C(COc1cccc(F)c1)Nc1nc(-c2ccccn2)cs1 [MMV676409] | 37.25% | 12.84% | – | –
COc1ccc(-c2nnc3ccc(-c4cccc(C(C)C)c4)cn23)cc1OC [MMV688313] | 55.91% | 18.47% | – | –
Cc1ccc(C(=O)Nc2ccc(S(=O)(=O)O)c3cc(S(=O)(=O)O)cc(S(=O)(=O)O)c23)cc1NC(=O)c1cccc(NC(=O)Nc2cccc(C(=O)Nc3cc(C(=O)Nc4ccc(S(=O)(=O)O)c5cc(S(=O)(=O)O)cc(S(=O)(=O)O)c45)ccc3C)c2)c1 [MMV637953, Suramin, reference compound] | – | – | 105% | 117%
CC(C)(C)OC(=O)N1CCN(c2nccc(-c3ccc(-c4ccc(Cl)cc4)s3)n2)CC1 [MMV688416] | 76.11% | 66.54% | – | –
NCC(c1cccs1)S(=O)(=O)c1ccccc1 (stereo not drawn) [MMV688557] | 71.96% | 58.46% | – | –
Cc1c[nH]c(CCNC(=O)c2cc(-c3ccc(Cl)cc3)cs2)n1 [MMV676350] | 84.72% | 104.94% | – | –

SMILES | Relative Bioluminescence (%) (2 µM compound) | Relative Bioluminescence (%) (10 µM compound) | viability at 2 µM (2 µM compound) | viability at 10 µM (10 µM compound)
CCCc1ccc(S(=O)(=O)Nc2ccc(CN3CCN(CC4CC4)CC3)cc2)cc1 [MMV688125] | 86.53% | 100.33% | – | –
CN1CCN(c2nccc3[nH]c(-c4cccc(F)c4)cc23)CC1 [MMV393144] | 92.24% | 81.97% | – | –
C[C@H]1c2cccc(O)c2C(=O)C2=C(O)[C@]3(O)C(=O)C(C(N)=O)=C(O)[C@@H](N(C)C)[C@@H]3[C@@H](O)[C@@H]21 [MMV000011, Doxycycline, reference compound] | – | – | 95% | 94.7%
CC(C)C(Oc1cccc2ccccc12)C(=O)O (stereo not drawn) [MMV676191] | 107.96% | 94.76% | – | –
Cc1cccc(C(=O)Nc2ccnc(N(C)C3CCN(CC(C)C)CC3)c2)c1 [MMV024829] | 74.80% | 69.82% | – | –
CCN(CC)C(=O)N1CCN(C)CC1 [MMV002816, Diethylcarbamazine, reference compound] | – | – | 88.8% | 62.5%
CC(C(=O)N1CCCC1)N1CCN(S(=O)(=O)c2ccc(C(C)(C)C)cc2)CC1 (stereo not drawn) [MMV020291] | 117.25% | 111.14% | – | –
Cc1nnc(NC(=O)c2cn(-c3ccccc3)nc2-c2ccccc2C)o1 [MMV020320] | 47.21% | 0.21% | – | –
CC(C)NCC(=O)Nc1cccc(C(=O)Nc2cccc(C(F)(F)F)c2)c1 [MMV020165] | 63.67% | 61.89% | – | –
CS(=O)(=O)N1CCC(CCn2nc(Cc3cccc4ccccc34)c3c(N)ncnc32)CC1 [MMV688470] | 96.68% | 53.17% | – | –
Nc1ncc(Br)cc1-c1nc2cc(Cl)cnc2[nH]1 [MMV676358] | 93.00% | 64.12% | – | –
Cc1ccc2nc(Cl)c(CNCc3cccs3)cc2c1 [MMV676439] | 83.45% | 95.86% | – | –
NC(=O)c1cc(Br)ccc1OCCOc1ccccc1 [MMV687243] | 65.34% | 78.50% | – | –
O=C(c1ccco1)N(CCCn1ccnc1)c1nc2c(Cl)cccc2s1 [MMV688936] | 80.40% | 77.21% | – | –
CON=C(C(=O)OC)c1ccccc1CON=C(C)c1cccc(C(F)(F)F)c1 [MMV688754, Trifloxystrobin] | – | – | 67.6% | -1.92%
N=C(N)Nc1ccc(-c2ccc(-c3ccc(N=C(N)N)c(Cl)c3)o2)cc1Cl [MMV688271] | 98.92% | 56.10% | – | –
COc1cccc(-c2nc3c(N4CCCC4)cccc3n2CC2CCCN2)n1 (stereo not drawn) [MMV687703] | 48.25% | 76.96% | – | –
CC(C)n1nc(-c2cc3c(Cl)cccc3[nH]2)c2c(N)ncnc21 [MMV688417] | 76.07% | -0.98% | – | –
CC(c1cc(Cl)cc(Cl)c1)N(C)c1ncc2c(N)nc(N)nc2n1 (stereo not drawn) [MMV689437] | 37.21% | 1.17% | – | –
Cc1ncc(-c2ccnc(Nc3ccc(S(C)(=O)=O)cc3)n2)n1C(C)C [MMV676604] | 81.35% | 33.57% | – | –
Cc1cc(OCC(=O)NCc2ccccc2)c2cc(Br)ccc2n1 [MMV687747] | 76.47% | 30.38% | – | –
Nc1ncnc2c1c(-c1cnc3ccccc3c1)nn2CC1CCNCC1 [MMV688411] | 105.51% | 65.85% | – | –
Cc1ccc(Oc2ccc(NC(=O)CNc3ccccc3N3CCCC3=O)cc2)cc1 [MMV020512] | 56.59% | 56.11% | – | –
CN1CCN(S(=O)(=O)c2ccc(-c3ccc4c(Nc5ccc6n[nH]nc6c5)ccnc4c3)cc2)CC1 [MMV687246] | 103.95% | 82.04% | – | –
COc1ccc(OC)c(NCc2ccc3nc(N)nc(N)c3c2Cl)c1 [MMV675968] | 100.09% | 86.04% | – | –
